Assay results published in patent publication US12172995B2, “Substituted indole and indazole compounds” (BRISTOL-MYERS SQUIBB COMPANY, priority 2018, dated 2024).

Columns and labels:
Format in all cases: cell-based
[1] = target: T1, human TLR7 (Homo sapiens, UniProt Q9NYK1); assay: TLR7 inhibition reporter assay (HEK-Blue SEAP); conditions: HEK-Blue cells overexpressing human TLR7, stimulated with gardiquimod 7.5 μM, 22 hour incubation
T1 construct: host or cells: HEK-Blue cells
T1 sequence (Q9NYK1 27-1049): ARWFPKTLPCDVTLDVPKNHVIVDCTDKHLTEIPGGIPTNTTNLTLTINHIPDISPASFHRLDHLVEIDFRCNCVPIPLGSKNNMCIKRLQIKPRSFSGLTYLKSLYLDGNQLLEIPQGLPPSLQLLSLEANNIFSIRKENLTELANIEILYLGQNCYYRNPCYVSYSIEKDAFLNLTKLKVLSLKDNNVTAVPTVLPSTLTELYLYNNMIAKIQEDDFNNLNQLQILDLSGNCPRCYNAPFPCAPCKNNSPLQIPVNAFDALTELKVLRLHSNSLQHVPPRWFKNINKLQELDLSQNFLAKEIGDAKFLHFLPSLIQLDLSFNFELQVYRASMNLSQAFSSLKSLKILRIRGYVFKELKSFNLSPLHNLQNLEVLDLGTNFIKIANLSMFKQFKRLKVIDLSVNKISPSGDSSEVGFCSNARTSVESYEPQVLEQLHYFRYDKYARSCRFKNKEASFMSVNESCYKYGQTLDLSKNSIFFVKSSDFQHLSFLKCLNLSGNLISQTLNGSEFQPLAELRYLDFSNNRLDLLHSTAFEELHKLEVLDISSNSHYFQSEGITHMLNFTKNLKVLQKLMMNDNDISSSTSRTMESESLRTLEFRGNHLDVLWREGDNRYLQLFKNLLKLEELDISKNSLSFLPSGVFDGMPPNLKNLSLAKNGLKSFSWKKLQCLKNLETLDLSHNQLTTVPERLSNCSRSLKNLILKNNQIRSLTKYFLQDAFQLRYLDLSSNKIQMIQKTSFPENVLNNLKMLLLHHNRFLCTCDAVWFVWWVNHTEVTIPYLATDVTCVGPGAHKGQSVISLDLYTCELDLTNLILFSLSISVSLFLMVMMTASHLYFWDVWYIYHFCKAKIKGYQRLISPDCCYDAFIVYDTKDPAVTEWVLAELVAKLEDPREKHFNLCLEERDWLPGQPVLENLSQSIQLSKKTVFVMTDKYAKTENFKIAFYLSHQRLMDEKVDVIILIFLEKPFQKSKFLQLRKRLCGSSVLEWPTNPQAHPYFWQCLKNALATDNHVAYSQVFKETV
Method in brief: (§1)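 HEK-Blue cells overexpressing the receptor, with an NF-κB/AP-1-driven SEAP reporter, were pre-treated with compound (0.05 nM to 50 μM) for 30 min at room temperature. Stimulation used gardiquimod 7.5 μM (TLR7), R848 15.9 μM (TLR8) or ODN2006 5 nM (TLR9), followed by 22 h at 37 °C.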

[2] = target: T2, human TLR8 (Homo sapiens, UniProt Q9NR97); assay: TLR8 inhibition reporter assay (HEK-Blue SEAP); conditions: HEK-Blue cells overexpressing human TLR8, stimulated with R848 15.9 μM, 22 hour incubation
T2 construct: host or cells: HEK-Blue cells
T2 sequence (Q9NR97 27-1041): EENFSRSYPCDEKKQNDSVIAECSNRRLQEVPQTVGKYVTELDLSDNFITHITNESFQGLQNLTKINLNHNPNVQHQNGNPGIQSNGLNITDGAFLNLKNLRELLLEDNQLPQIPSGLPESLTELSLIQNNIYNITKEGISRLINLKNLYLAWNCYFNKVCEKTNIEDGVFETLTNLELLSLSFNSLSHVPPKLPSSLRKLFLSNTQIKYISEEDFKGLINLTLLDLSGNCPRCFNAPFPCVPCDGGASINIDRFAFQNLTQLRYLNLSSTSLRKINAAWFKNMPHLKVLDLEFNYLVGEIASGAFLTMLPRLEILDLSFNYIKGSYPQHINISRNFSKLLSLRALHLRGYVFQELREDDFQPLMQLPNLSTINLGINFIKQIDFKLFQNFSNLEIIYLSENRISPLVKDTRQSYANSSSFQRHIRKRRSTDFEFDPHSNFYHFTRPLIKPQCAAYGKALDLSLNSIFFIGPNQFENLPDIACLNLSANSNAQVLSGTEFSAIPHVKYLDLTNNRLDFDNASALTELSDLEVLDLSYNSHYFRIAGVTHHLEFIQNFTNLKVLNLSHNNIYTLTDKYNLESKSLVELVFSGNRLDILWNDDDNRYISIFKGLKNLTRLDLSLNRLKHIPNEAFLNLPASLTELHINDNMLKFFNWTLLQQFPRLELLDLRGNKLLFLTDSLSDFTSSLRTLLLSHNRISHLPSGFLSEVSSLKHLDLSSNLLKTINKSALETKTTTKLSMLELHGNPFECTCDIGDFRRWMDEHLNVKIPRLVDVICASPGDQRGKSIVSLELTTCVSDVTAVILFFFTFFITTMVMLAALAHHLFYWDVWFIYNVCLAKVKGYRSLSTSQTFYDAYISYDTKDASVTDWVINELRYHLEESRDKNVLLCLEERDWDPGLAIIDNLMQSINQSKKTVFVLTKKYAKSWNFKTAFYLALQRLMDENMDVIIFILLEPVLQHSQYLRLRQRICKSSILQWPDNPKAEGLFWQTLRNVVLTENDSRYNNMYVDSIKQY
Method in brief: as §1

[3] = target: T3, human TLR9 (Homo sapiens, UniProt Q9NR96); assay: TLR9 inhibition reporter assay (HEK-Blue SEAP); conditions: HEK-Blue cells overexpressing human TLR9, stimulated with ODN2006 5 nM, 22 hour incubation
T3 construct: host or cells: HEK-Blue cells
T3 sequence (Q9NR96 26-1032): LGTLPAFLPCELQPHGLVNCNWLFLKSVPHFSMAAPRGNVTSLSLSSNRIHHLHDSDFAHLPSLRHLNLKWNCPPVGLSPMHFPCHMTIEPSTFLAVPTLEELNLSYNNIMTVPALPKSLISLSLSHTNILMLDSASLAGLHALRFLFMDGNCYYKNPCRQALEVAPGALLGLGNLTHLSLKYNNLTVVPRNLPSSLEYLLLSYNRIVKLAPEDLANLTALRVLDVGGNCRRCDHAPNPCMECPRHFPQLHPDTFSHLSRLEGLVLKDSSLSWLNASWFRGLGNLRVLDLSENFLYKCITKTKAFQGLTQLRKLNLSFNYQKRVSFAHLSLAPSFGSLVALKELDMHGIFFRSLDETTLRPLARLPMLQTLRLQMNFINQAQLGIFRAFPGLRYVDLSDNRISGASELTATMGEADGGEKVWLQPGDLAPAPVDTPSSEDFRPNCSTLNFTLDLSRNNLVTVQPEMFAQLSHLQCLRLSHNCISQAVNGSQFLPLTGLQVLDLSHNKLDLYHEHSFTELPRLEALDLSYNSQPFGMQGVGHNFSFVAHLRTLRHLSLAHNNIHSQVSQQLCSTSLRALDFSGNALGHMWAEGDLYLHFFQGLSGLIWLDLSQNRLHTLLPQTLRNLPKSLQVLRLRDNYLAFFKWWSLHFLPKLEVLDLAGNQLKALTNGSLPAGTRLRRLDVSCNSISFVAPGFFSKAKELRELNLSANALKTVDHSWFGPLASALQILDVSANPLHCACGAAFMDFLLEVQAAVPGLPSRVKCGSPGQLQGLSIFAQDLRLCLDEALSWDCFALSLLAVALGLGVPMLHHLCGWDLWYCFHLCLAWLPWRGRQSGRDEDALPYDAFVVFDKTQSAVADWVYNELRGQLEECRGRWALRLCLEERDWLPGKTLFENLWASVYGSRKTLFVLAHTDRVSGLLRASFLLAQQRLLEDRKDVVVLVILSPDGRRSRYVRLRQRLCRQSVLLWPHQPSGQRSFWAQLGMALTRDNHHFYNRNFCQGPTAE
Method in brief: as §1

IC50 [1] [nM] | IC50 [2] [nM] | IC50 [3] [nM] | SMILES
26.3 | 3.9 | 4900 | Cc1cc(-c2cc3[nH]nc(C4CCC(N5CC(C)(C)C5)CC4)c3cc2C(C)C)cn2ncnc12 (single isomer, unassigned) [Example 136, 6-(3-(4-(3,3-dimethylazetidin-1-yl)cyclohexyl)-5-isopropyl-1H-indazol-6-yl)-8-methyl-[1,2,4]triazolo[1,5-a]pyridine]
1.9 | 1.6 | 2570 | CCc1cc(-c2cc(C)c3ncnn3c2)cc2[nH]nc(OC3CCC(N(C)C)CC3)c12 (single isomer, unassigned) [Example 168, 4-((4-ethyl-6-(8-methyl-[1,2,4]triazolo[1,5-a]pyridin-6-yl)-1H-indazol-3-yl)oxy)-N,N-dimethylcyclohexan-1-amine]
2.5 | 0.3 | 12100 | Cc1cc(-c2cc3[nH]nc(C4CCC(NCC(=O)N(C)C)CC4)c3cc2C(C)C)cn2ncnc12 (single isomer, unassigned) [Example 125, 2-((4-(5-isopropyl-6-(8-methyl-[1,2,4]triazolo[1,5-a]pyridin-6-yl)-1H-indazol-3-yl)cyclohexyl)amino)-N,N-dimethylacetamide]
0.8 | 0.1 | 6120 | CCc1cc2c(C3CCC(N(C)C)CC3)n[nH]c2cc1-c1cc(C)c2ncnn2c1 (single isomer, unassigned) [Example 93, 4-(5-ethyl-6-(8-methyl-[1,2,4]triazolo[1,5-a]pyridin-6-yl)-1H-indazol-3-yl)-N,N-dimethylcyclohexan-1-amine]
1 | 0.5 | 5870 | Cc1cc(-c2cc3[nH]nc(C4CCC(N5CCC5)CC4)c3cc2C(C)C)cn2ncnc12 (single isomer, unassigned) [Example 138, 6-(3-(4-(azetidin-1-yl)cyclohexyl)-5-isopropyl-1H-indazol-6-yl)-8-methyl-[1,2,4]triazolo[1,5-a]pyridine]
6 | 0.1 | ≥ 50000 | Cc1cc2c(C3CCC(NC(C)C)CC3)n[nH]c2cc1-c1cc(C)c2ncnn2c1 (single isomer, unassigned) [Example 38, N-isopropyl-4-(5-methyl-6-(8-methyl-[1,2,4]triazolo[1,5-a]pyridin-6-yl)-1H-indazol-3-yl)cyclohexan-1-amine]
18.3 | 1.4 | 6210 | Cc1cc2c(C3CCN(CC(N)=O)CC3)n[nH]c2cc1-c1cc(C)c2ncnn2c1 [Example 70, 2-(4-(5-methyl-6-(8-methyl-[1,2,4]triazolo[1,5-a]pyridin-6-yl)-1H-indazol-3-yl)piperidin-1-yl)acetamide]
4 | 2.3 | 4340 | Cc1cc(-c2cc(C)c3ncnn3c2)cc2[nH]nc(OC3CCC(NCCS(C)(=O)=O)CC3)c12 (stereo not drawn) [Example 188, 4-((4-methyl-6-(8-methyl-[1,2,4]triazolo[1,5-a]pyridin-6-yl)-1H-indazol-3-yl)oxy)-N-(2-(methylsulfonyl)ethyl)cyclohexan-1-amine]
0.9 | 0.1 | 5430 | Cc1cc(-c2cc3[nH]nc(C4CCC(N5CCOCC5)CC4)c3cc2C(C)C)cn2ncnc12 (stereo not drawn) [Example 132, 4-(4-(5-isopropyl-6-(8-methyl-[1,2,4]triazolo[1,5-a]pyridin-6-yl)-1H-indazol-3-yl)cyclohexyl)morpholine]
5.6 | 0.2 | 23500 | CCc1cc2c(C3CCN(CCC(F)(F)F)CC3)n[nH]c2cc1-c1cc(C)c2ncnn2c1 [Example 108, 6-(5-ethyl-3-(1-(3,3,3-trifluoropropyl)piperidin-4-yl)-1H-indazol-6-yl)-8-methyl-[1,2,4] triazolo[1,5-a]pyridine]
1.6 | 0.4 | 2200 | CCc1cc2c(C3CCNCC3)n[nH]c2cc1-c1cc(C)c2ncnn2c1 [Example 82, 6-(5-ethyl-3-(piperidin-4-yl)-1H-indazol-6-yl)-8-methyl-[1,2,4]triazolo[1,5-a]pyridine]
2.6 | 0.5 | 14600 | CCc1cc2c(OC3CCC(N(C)C)CC3)n[nH]c2cc1-c1cc(C)c2ncnn2c1 (single isomer, unassigned) [Example 191, 4-((5-ethyl-6-(8-methyl-[1,2,4]triazolo[1,5-a]pyridin-6-yl)-1H-indazol-3-yl)oxy)-N,N-dimethylcyclohexan-1-amine]

SMILES | IC50 [1] [nM] | IC50 [2] [nM] | IC50 [3] [nM]
Cc1cc2c(C3CCN(C4CCOCC4)CC3)n[nH]c2cc1-c1cc(C)c2ncnn2c1 [Example 21, 8-methyl-6-(5-methyl-3-(1-(tetrahydro-2H-pyran-4-yl)piperidin-4-yl)-1H-indazol-6-yl)-[1,2,4]triazolo[1,5-a]pyridine] | 26.2 | 0.7 | 4540
